Laboratory results taken from patent US7495001B2, “Benzannelated derivatives, their manufacture and use as pharmaceutical agents” (Hoffmann-La Roche Inc., priority 2003, dated 2009).

Experiments:
PPARδ = biological target: T1, PPARδ (Homo sapiens, UniProt Q03181); test: PPARδ radioligand binding assay (scintillation proximity, GST-PPARδ-LBD); conditions: GST-PPARδ-LBD fusion protein, SPA radioligand binding
T1 construct: PPARδ (aa 139 to 442); made in house; host or cells: E. coli BL21 (pLysS)
T1 sequence (Q03181 139-441 limits assumed): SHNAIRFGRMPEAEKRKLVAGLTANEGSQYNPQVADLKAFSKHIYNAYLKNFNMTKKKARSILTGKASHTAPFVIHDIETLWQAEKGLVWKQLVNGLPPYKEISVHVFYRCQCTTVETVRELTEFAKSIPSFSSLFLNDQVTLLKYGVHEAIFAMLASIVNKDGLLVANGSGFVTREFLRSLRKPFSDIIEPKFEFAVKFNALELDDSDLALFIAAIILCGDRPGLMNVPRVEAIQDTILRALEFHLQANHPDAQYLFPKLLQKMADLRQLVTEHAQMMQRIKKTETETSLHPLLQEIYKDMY
Description: (§1) Background information on the performed assays can be found in: Nichols J S et al. “Development of a scintillation proximity assay for peroxisome proliferator-activated receptor gamma ligand binding domain”, (1998) Anal. Biochem. 257:112-119.
(§2) Full-length cDNA clones for humans PPARδ and PPARα and mouse PPARγ were obtained by RT-PCR from human adipose and mouse liver cRNA, respectively, cloned into plasmid vectors and verified by DNA sequencing. Bacterial and mammalian expression vectors were constructed to produce glutathione-s-transferase (GST) and Gal4 DNA binding domain proteins fused to the ligand binding domains (LBD) of PPARδ (aa 139 to 442), PPARγ (aa 174 to 476) and PPARα (aa 167 to 469). To accomplish this, the portions of the cloned sequences encoding the LBDs were amplified from the full-length clones by PCR and then subcloned into the plasmid vectors. Final clones were verified by DNA sequence analysis.
(§3) Induction, expression, and purification of GST-LBD fusion proteins were performed in E. coli strain BL21 (pLysS) cells by standard methods (Ref: Current Protocols in Molecular Biology, Wiley Press, edited by Ausubel et al.).
(§4) Radioligand Binding Assay
PPARδ receptor binding was assayed in HNM10 (50 mM Hepes, pH 7.4, 10 mM NaCl, 5 mM MgCl2, 0.15 mg/ml fatty acid-free BSA and 15 mM DTT). For each 96 well reaction a 500 ng equivalent of GST-PPARδ-LBD fusion protein and radioligand, e.g. 20000 dpm {2-methyl-4-[4-methyl-2-(4-trifluoromethyl-phenyl)-thiazol-5-yl-ditritiomethylsulfanyl]-phenoxy}-acetic acid, was bound to 10 μg SPA beads (PharmaciaAmersham) in a final volume of 50 μl by shaking. The resulting slurry was incubated for 1 h at RT and centrifuged for 2 min at 1300 g. […] Radioligand was added and the reaction incubated at RT for 1 h and scintillation proximity counting performed in the presence of test compounds was determined. All binding assays were performed in 96 well plates and the amount of bound ligand was measured on a Packard TopCount using OptiPlates (Packard). […]

PPARγ = biological target: T2, PPARγ (Mus musculus, UniProt P37238); test: PPARγ radioligand binding assay (scintillation proximity, GST-PPARγ-LBD); conditions: GST-PPARγ-LBD fusion protein, SPA radioligand binding
T2 construct: PPARγ (aa 174 to 476); made in house; host or cells: E. coli BL21 (pLysS)
T2 sequence (P37238 204-505): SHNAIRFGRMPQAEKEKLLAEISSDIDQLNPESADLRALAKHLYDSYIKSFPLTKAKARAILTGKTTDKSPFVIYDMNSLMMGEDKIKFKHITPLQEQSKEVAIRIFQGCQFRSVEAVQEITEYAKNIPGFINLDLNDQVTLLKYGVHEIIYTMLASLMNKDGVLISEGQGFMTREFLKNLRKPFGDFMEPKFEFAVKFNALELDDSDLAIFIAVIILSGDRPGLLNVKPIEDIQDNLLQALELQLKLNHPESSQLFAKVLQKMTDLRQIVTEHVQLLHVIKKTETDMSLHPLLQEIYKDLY
Description: as §1, §2, §3, §4
(§5) PPARγ receptor binding was assayed in TKE50 (50 mM Tris-HCl, pH 8, 50 mM KCl, 2 mM EDTA, 0.1 mg/ml fatty acid-free BSA and 10 mM DTT). For each 96 well reaction an 140 ng equivalent of GST-PPARγ-LBD fusion protein was bound to 10 μg SPA beads (PharmaciaAmersham) in a final volume of 50 ul by shaking. The resulting slurry was incubated for 1 h at RT and centrifuged for 2 min at 1300 g. The supernatant containing unbound protein was removed and the semidry pellet containing the receptor-coated beads was resolved in 50 ul of TKE. […] All binding assays were performed in 96 well plates and the amount of bound ligand measured on a Packard TopCount using OptiPlates (Packard). Nonspecific binding was determined in the presence of 10^−4 M unlabelled compound. […]

PPARα = biological target: T3, PPARα (Homo sapiens, UniProt Q07869); test: PPARα radioligand binding assay (scintillation proximity, GST-PPARα-LBD); conditions: GST-PPARα-LBD fusion protein, SPA radioligand binding
T3 construct: PPARα (aa 167 to 469); made in house; host or cells: E. coli BL21 (pLysS)
T3 sequence (Q07869 167-468 limits assumed): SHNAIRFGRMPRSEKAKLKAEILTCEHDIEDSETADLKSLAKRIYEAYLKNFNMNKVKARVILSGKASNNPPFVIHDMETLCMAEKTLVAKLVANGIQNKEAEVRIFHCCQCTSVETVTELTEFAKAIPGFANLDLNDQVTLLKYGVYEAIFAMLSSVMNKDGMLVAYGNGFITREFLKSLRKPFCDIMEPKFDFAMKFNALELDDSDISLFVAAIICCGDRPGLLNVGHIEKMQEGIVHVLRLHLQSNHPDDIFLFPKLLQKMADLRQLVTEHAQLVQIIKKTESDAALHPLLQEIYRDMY
Description: as §1, §2, §3, §4
as §5, with “PPARα receptor” for “PPARγ receptor”, “of GST-PPARα-LBD” for “of GST-PPARγ-LBD”, “50 μl” for “50 ul”

Row | Compound | melting point | IC50 (PPARδ) | IC50 (PPARγ) | IC50 (PPARα)
1 | CCC(c1ccc(-c2cccc(C(F)(F)F)c2)nc1C)N(C)c1ccc(OCC(=O)O)c2ccccc12 (racemic) [Example 2, [rac]-[4-(Methyl-{1-[2-methyl-6-(3-trifluoromethyl-phenyl)-pyridin-3-yl]-propyl}-amino)-naphthalen-1-yloxy]-acetic acid] | 76 to 78 °C | – | – | –
2 | Cc1nc(-c2ccc(C(F)(F)F)cc2)ccc1COc1ccc(CCC(=O)O)c2c1CCCC2 [Example 5, 3-{4-[2-Methyl-6-(4-trifluoromethyl-phenyl)-pyridin-3-ylmethoxy]-5,6,7,8-tetrahydro-naphthalen-1-yl}-propionic acid] | – | 106 nM | > 10000 nM | 716 nM
3 | CCCC(c1ccc(-c2cccc(C(F)(F)F)c2)nc1C)N(C)c1ccc(OCC(=O)O)c2ccccc12 (racemic) [Example 3, [rac]-[4-(Methyl-{1-[2-methyl-6-(3-trifluoromethyl-phenyl)-pyridin-3-yl]-butyl}-amino)-naphthalen-1-yloxy]-acetic acid] | – | 65 nM | > 10000 nM | 3580 nM
4 | COC(Cc1cc(OCCc2ccc(-c3ccc(C(F)(F)F)cc3)nc2C)c2ccccc2c1)C(=O)O (racemic) [Example 4, [rac]-2-Methoxy-3-(4-{2-[2-methyl-6-(4-trifluoromethyl-phenyl)-pyridin-3-yl]-ethoxy}-naphthalen-2-yl)-propionic acid] | – | 295 nM | > 10000 nM | 37 nM
5 | Cc1nc(-c2ccc(C(F)(F)F)cc2)ccc1C(C)N(C)c1ccc(OCC(=O)O)c2ccccc12 (racemic) [Example 1, [rac]-[4-(Methyl-{1-[2-methyl-6-(4-trifluoromethyl-phenyl)-pyridin-3-yl]-ethyl}-amino)-naphthalen-1-yloxy]-acetic acid] | 157 to 158 °C | – | – | –
